The record followed here is patent US6337336B1, “Azaindole derivatives for the treatment of depression” (American Home Products Corporation, priority 1999, dated 2002).

The target of one data set is T1, 5-HT1A cloned receptor (Homo sapiens, UniProt P08908).
T1 construct: expressed in transfected cells
T1 sequence (P08908 1-422): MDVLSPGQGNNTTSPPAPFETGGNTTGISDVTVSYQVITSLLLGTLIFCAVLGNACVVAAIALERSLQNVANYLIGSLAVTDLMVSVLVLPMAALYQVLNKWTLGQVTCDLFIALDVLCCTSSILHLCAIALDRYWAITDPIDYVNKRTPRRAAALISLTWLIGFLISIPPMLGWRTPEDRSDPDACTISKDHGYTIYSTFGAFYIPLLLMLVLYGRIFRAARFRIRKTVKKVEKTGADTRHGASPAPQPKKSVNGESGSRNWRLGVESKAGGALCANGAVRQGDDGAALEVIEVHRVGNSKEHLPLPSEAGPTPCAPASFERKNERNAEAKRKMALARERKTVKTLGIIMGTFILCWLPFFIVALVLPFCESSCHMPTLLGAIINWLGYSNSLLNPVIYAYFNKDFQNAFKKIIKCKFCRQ
In words: [35S]-GTPγS binding assay. It is filed as biochemical. Particulars: relative to maximum agonist response defined by excess 8-OH-DPAT. The method, then:
The [^35S]-GTPγS binding assay was similar to that used by Lazareno and Birdsall, Br. J. Pharmacol. 109:1120 (1993). Briefly, 5-HT1A cloned receptor membrane fragments (as used for 5-HT1A receptor binding assays) were stored at −70° C. When needed, membranes were rapidly thawed, centrifuged at 40,000×g for 10 minutes and resuspended at 4° C. for 10 minutes in assay buffer (25 mM HEPES, 3 mM MgCl2, 100 mM NaCl, 1 mM EDTA, 10 uM GDP, […], pH 8.0). These membranes were then incubated for 30 min at 30° C. with [^35S]GTPgS (1 nM) in the presence of vehicle, test compound (one to eight concentrations), or excess 8-OH-DPAT to define maximum agonist response. All reactions were terminated by the addition of ice cold Tris buffer followed by rapid filtration using a Tom Tech® filtration device to separate bound from free [^35S]GTPgS. Agonists produced an increase in the amount of [^35S]GTPgS bound whereas antagonists produced no increase in binding. Bound radioactivity was counted and analyzed as above.
For orientation: Binding of GTPγS marks nucleotide exchange on a G protein.

For data set [1], the target named is T2, human 5-HT1A receptor (Homo sapiens, UniProt P08908).
T2 sequence (P08908 1-422): T1 sequence (P08908 1-422)
In words: human 5-HT1A receptor binding with [3H]8-OH-DPAT in CHO cell membranes.
Protocol: A stable Chinese hamster ovary cell line expressing the human 5-HT1A receptor subtype (5-HT1A.CHO cells) was employed throughout this study. Cells were maintained in DMEM supplemented with 10% fetal calf serum, non-essential amino acids and penicillin/ streptomycin.
Cells were grown to 95-100% confluency as a monolayer before membranes were harvested for binding studies. Cells were gently scraped from the culture plates, transferred to centrifuge tubes, and washed twice by centrifugation (2000 rpm for 10 min., 4° C.) in buffer (50 mM Tris; pH 7.5). The resulting pellets were aliquoted and maintained at −80° C. On the day of assay, the cells were thawed on ice, and resuspended in buffer. Studies were conducted using [^3H]8-OH-DPAT as the radioligand. The binding assay was performed in 96 well microtiter plates in a final total volume of 250 μL of buffer. Comparison experiments were performed by using 7 concentrations of unlabelled drug and a final ligand concentration of 1.5 nM. Non-specific binding was determined in the presence of 10 μM 5HT. Saturation analysis was conducted by using [^3H]8-OH-DPAT at concentrations ranging from 0.3-30 nM. Following a 30 minute incubation at room temperature, the reaction was terminated by the addition of ice cold buffer and rapid filtration using a M-96 Brandel Cell Harvester (Gaithersburg, MD) through a GF/B filter presoaked for 30 minutes in 0.5% polyethyleneimine.

A further data set has as its target T3, serotonin transporter (Rattus norvegicus, UniProt P31652).
T3 construct: frontal cortical membranes prepared from male Sprague-Dawley rats; from tissue; host or cells: rat frontal cortex membranes (male Sprague-Dawley)
In words: serotonin transporter affinity, 3H-paroxetine binding in rat frontal cortical membranes. Particulars: 3H-paroxetine 0.1 nM, read-out: ST (Ki). The procedure:
A protocol similar to that used by Cheetham et al., Neuropharmacol., 32:737 (1993) was used to determine the affinity of compounds for the serotonin transporter. Briefly, frontal cortical membranes prepared from male Sprague-Dawley rats were incubated with ^3H-paroxetine (0.1 nM) for 60 min at 25° C. All tubes also contained either vehicle, test compound (one to eight concentrations), or a saturating concentration of fluoxetine (10 μM) to define […]. All reactions were terminated by the addition of ice cold Tris buffer followed by rapid filtration using a Tom Tech filtration device to separate bound from free ^3H-paroxetine. Bound radioactivity was quantitated using a Wallac 1205 Beta Plate® counter. Nonlinear regression analysis was used to determine IC50 values which were converted to Ki values using the method set forth in Cheng and Prusoff, Biochem. Pharmacol., 22:3099 (1973) (Ki=IC50/((Radioligand conc.)/(1+KD)).

Data set [2] addresses T2, human 5-HT1A receptor. In words: forskolin-stimulated cAMP formation in 5-HT1A.CHO cells (cAMP SPA assay). It is filed as cell-based. The arrangement: expressed in transfected cells. As to conditions: forskolin 1 uM. The procedure:
The following assays were performed by incubating the cells with DMEM containing 25 mM HEPES, 5 mM theophylline and 10 μM pargyline for a period of 20 minutes at 37° C. Functional activity was assessed by treating the cells with forskolin (1 uM final concentration) followed immediately by test compound (6 concentrations) for an additional 10 min at 37° C. In separate experiments, 6 concentrations of antagonist were preincubated for 20 min prior to the addition of 10 nM 8-OH-DPAT and forskolin. The reaction was terminated by removal of the media and addition of 0.5 ml ice cold assay buffer. Plates were stored at −20° C. prior to assessment of cAMP formation by a cAMP SPA assay (Amersham).
(In general: Cyclic AMP is a second messenger, typically raised through Gs and lowered through Gi signalling.)

Where a name gives a salt, the structure may show the parent alone.

T3 sequence (P31652 whole entry): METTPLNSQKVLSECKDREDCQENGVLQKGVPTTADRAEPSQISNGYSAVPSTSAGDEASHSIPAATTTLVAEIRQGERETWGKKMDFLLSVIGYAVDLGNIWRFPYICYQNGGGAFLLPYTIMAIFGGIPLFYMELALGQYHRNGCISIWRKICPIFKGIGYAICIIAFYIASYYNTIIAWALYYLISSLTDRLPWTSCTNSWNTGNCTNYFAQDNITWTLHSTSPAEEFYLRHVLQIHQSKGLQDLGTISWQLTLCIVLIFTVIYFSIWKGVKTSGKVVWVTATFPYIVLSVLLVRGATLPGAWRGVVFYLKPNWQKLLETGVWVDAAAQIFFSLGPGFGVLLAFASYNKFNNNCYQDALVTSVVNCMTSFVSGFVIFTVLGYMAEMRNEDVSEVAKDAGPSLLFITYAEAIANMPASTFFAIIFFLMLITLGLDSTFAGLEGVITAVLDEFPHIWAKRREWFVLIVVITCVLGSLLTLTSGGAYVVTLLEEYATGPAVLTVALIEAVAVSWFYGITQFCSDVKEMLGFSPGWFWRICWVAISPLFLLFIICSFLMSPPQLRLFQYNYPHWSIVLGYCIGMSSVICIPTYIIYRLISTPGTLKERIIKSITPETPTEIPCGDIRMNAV

A word on the melting point: it is the temperature of the solid-liquid transition. As to `C1=C(c2c[nH]c3ncccc23)CCN(CCOc2cccc3c2OCCO3)C1` (as salt: oxalate) [Example 1, 3-{1-[2-(2,3-Dihydro-benzo[1,4]dioxin-5-yloxy)-ethyl]-1,2,3,6-tetrahydro-pyridin-4-yl}-1H-pyrrolo[2,3-b]pyridine], the melting point lay in the range of 164 to 167 °C.
`C1=C(c2c[nH]c3ncccc23)CCN(CCOc2cccc3[nH]ccc23)C1` (as salt: oxalate) [Example 2, 3-{1-[2-(1H-Indol-4-yloxy)-ethyl]-1,2,3,6-tetrahydro-pyridin-4-yl}-1H-pyrrolo[2,3-b]pyridine] displayed a melting point of 106 to 109 °C.
Compound `C1=C(c2c[nH]c3ncccc23)CCN(CCOc2cccc3ncccc23)C1` (as salt: oxalate) [Example 3, 5-{2-[4-(1H-Pyrrolo[2,3-b]pyridin-3-yl)-3,6-dihydro-2H-pyridin-1-yl]-ethoxy}-quinoline] displayed a melting point of 202 to 205 °C.
The Emax is the maximal effect, on the per cent scale that the assay sets. Usually Ki stands for a measure of affinity in units of concentration, obtained from inhibition or displacement. Compound `C1=C(c2c[nH]c3ncccc23)CCN(CCOc2cccc3c2OCCO3)C1` [Example 1, 3-{1-[2-(2,3-Dihydro-benzo[1,4]dioxin-5-yloxy)-ethyl]-1,2,3,6-tetrahydro-pyridin-4-yl}-1H-pyrrolo[2,3-b]pyridine] gave an Emax at 5-HT1A cloned receptor of 30%. Also, the Ki was determined as 43.9 nM at human 5-HT1A receptor [1] and 18 nM on serotonin transporter.
As to `C1=C(c2c[nH]c3ncccc23)CCN(CCOc2cccc3[nH]ccc23)C1` [Example 2, 3-{1-[2-(1H-Indol-4-yloxy)-ethyl]-1,2,3,6-tetrahydro-pyridin-4-yl}-1H-pyrrolo[2,3-b]pyridine], the values for the Emax on 5-HT1A cloned receptor and at human 5-HT1A receptor [2] were 9% and 0%, respectively. Besides, the Ki at human 5-HT1A receptor [1] worked out at 10.9 nM; at serotonin transporter, 1.46 nM.
For `C1=C(c2c[nH]c3ncccc23)CCN(CCOc2cccc3ncccc23)C1` [Example 3, 5-{2-[4-(1H-Pyrrolo[2,3-b]pyridin-3-yl)-3,6-dihydro-2H-pyridin-1-yl]-ethoxy}-quinoline], in that order: 0%, 0%, 71.6 nM and 6.89 nM.
